Results published in patent US20240376121A1, “COMPOUNDS AND USES THEREOF” (Foghorn Therapeutics Inc., priority 2021, published 2024).

What was measured:
HiBit-BRM fusion protein = biological target: T1, HiBit-BRM fusion protein (Homo sapiens, UniProt P51531); assay: HiBiT-BRM cell-based degradation assay (Nano-Glo HiBiT Lytic Detection); conditions: stable HeLa cell line expressing HiBiT-BRM, 24 h incubation; for BRM HiBit Degradation Maximum (%): top dose 30 μM; for DC50: read-out: BRM HiBit Degradation IC50
T1 construct: expressed in transfected cells
T1 sequence (P51531 whole entry, the tested form may be a part): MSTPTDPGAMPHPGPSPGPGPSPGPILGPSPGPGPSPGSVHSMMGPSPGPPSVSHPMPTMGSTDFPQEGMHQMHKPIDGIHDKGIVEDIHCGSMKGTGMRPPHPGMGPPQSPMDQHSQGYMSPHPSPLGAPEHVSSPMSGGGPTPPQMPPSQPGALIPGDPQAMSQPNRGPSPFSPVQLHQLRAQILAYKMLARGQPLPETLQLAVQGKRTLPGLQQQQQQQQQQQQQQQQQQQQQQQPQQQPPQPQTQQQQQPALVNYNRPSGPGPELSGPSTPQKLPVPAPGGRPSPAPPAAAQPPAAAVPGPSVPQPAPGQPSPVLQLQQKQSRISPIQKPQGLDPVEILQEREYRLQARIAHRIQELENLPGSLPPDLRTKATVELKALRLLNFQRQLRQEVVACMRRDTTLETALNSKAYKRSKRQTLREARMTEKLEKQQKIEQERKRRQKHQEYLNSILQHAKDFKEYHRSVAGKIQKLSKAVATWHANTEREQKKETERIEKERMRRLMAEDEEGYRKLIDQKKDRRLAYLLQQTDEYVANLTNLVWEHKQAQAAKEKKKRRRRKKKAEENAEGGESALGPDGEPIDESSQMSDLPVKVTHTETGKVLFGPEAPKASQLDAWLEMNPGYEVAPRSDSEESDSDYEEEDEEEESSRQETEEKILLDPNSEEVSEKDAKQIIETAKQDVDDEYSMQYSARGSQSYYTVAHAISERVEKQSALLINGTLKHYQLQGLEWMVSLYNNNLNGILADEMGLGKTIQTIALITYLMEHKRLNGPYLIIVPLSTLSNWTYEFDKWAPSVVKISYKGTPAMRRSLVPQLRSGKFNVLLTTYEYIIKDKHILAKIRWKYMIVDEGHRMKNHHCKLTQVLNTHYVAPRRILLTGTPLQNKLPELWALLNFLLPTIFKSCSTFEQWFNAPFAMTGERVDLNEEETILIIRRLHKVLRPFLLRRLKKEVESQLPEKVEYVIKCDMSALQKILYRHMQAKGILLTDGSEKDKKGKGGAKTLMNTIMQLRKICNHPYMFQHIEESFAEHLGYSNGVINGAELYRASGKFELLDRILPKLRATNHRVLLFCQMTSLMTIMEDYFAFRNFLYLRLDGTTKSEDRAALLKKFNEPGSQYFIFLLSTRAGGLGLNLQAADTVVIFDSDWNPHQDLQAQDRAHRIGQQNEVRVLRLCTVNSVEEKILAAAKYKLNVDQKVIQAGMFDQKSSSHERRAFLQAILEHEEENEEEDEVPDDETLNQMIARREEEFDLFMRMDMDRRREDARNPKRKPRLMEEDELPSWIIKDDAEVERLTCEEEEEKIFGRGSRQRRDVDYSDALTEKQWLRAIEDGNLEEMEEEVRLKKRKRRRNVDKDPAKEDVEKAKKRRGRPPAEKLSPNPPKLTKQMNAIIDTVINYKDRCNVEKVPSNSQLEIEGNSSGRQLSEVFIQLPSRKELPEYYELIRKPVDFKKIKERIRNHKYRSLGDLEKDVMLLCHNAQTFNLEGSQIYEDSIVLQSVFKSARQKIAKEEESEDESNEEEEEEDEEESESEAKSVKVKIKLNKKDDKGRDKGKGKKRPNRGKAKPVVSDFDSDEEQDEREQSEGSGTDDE
Method in brief: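 HeLa cells stably expressing HiBiT-BRM were treated for 24 h with compounds (10-point 3-fold dilutions, 30 μM final top dose, in duplicate). HiBiT was detected by lytic LgBiT complementation luminescence. % degradation was normalized to DMSO (high control) and 2 μM of a reference BRM/BRG1 degrader (low control).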

[1] = biological target: T2, HiBit-BRG1 fusion protein (Homo sapiens, UniProt P51532); assay: HiBiT-BRG1 cell-based degradation assay (Nano-Glo HiBiT Lytic Detection); conditions: stable HeLa cell line expressing HiBit-BRG1 and LgBit, 24 h incubation; for Dmax: top dose 30 μM, read-out: BRG1 HiBit Degradation Maximum (%); for DC50: read-out: BRMG1 HiBit Degradation IC50
T2 construct: expressed in transfected cells
T2 sequence (P51532 whole entry, the tested form may be a part): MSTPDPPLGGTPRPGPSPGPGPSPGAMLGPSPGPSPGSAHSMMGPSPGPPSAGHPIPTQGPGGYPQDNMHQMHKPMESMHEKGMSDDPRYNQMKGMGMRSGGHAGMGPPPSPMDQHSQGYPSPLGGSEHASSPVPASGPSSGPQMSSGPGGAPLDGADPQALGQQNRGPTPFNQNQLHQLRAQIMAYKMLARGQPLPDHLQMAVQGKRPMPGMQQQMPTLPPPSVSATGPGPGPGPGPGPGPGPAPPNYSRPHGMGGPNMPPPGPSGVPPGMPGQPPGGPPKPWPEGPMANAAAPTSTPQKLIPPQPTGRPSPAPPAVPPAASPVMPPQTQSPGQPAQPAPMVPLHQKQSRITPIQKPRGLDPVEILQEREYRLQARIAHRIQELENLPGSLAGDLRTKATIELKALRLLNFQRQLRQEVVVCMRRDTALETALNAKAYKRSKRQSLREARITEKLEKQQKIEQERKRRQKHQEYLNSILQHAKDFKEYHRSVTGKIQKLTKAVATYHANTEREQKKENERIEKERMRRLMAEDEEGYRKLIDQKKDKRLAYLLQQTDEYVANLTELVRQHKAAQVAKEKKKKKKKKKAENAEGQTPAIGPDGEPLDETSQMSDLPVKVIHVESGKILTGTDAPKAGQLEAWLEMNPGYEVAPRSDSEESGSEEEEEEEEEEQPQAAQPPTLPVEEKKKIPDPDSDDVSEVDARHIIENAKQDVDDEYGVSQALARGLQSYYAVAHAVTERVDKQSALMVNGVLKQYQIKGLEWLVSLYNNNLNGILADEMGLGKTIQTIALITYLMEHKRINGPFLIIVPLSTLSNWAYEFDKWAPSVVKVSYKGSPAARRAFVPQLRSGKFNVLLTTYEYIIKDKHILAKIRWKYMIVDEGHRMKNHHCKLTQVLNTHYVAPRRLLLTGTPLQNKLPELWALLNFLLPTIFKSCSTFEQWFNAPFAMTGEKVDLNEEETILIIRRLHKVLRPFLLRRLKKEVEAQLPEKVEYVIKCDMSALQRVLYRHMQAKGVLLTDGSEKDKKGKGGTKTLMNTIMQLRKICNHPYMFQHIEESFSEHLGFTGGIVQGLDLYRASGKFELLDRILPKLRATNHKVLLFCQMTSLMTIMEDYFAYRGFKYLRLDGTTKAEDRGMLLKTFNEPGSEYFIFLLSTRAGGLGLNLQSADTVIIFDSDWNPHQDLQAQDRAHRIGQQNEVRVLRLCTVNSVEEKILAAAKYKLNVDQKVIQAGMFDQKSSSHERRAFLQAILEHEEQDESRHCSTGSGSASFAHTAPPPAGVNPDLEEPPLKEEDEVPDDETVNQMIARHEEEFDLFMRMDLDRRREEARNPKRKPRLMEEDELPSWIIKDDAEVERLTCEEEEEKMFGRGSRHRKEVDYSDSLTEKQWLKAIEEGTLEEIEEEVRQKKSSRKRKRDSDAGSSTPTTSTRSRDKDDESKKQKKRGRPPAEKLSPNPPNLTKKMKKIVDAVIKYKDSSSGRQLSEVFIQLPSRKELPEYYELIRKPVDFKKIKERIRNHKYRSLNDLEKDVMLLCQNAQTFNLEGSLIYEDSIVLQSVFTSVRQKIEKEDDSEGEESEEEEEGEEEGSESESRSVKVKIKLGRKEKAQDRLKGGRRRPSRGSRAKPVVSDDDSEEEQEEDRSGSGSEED
Method in brief: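 HeLa cells stably expressing HiBiT-BRG1 and LgBiT treated 24 h with 10-point 3-fold dilutions (top 30 μM, duplicate). Luminescence read after Nano-Glo HiBiT lytic reagent; % degradation relative to DMSO (high control) and 2 μM reference BRM/BRG1 degrader (low control).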

DC50 (HiBit-BRM fusion protein)	Dmax [1]	DC50 [1]	SMILES	BRM HiBit Degradation Maximum (%) (HiBit-BRM fusion protein)
< 10 nM	< 50%	≥ 1000 nM	Cc1ncsc1-c1ccc([C@H](C)NC(=O)[C@@H]2C[C@@H](O)CN2C(=O)[C@@H](c2cc(OCCN3CCC(c4sc5nnc(-c6ccccc6O)cc5c4C)CC3)no2)C(C)C)cc1 [Compound 8, (2S,4R)-4-hydroxy-1-[(2R)-2-[3-(2-{4-[3-(2-hydroxyphenyl)-5-methylthieno[2,3-c]pyridazin-6-yl]piperidin-1-yl}ethoxy)-1,2-oxazol-5-yl]-3-methylbutanoyl]-N-[(1S)-1-[4-(4-methyl-1,3-thiazol-5-yl)phenyl]ethyl]pyrrolidine-2-carboxamide]	A (“A” indicates maximum degradation ≥ 75%)
≥ 100 nM	< 50%	≥ 1000 nM	Cc1ncsc1-c1ccc(CNC(=O)[C@@H]2C[C@@H](O)CN2C(=O)[C@@H](NC(=O)CCCCC(=O)N2CCC(c3cc4nnc(-c5ccccc5O)cc4s3)CC2)C(C)(C)C)cc1 [Compound 84, (2S,4R)-4-hydroxy-1-((S)-2-(6-(4-(3-(2-hydroxyphenyl)thieno[3,2-c]pyridazin-6-yl)piperidin-1-yl)-6-oxohexanamido)-3,3-dimethylbutanoyl)-N-(4-(4-methylthiazol-5-yl)benzyl)pyrrolidine-2-carboxamide]	C (“C” indicates maximum degradation < 50%)
< 10 nM	< 50%	≥ 1000 nM	Cc1ncsc1-c1ccc([C@H](C)NC(=O)[C@@H]2C[C@@H](O)CN2C(=O)[C@@H](c2cc(OCCN3CCC(c4cc5nnc(-c6ccccc6O)cc5s4)CC3)no2)C(C)C)cc1 [Compound 97, (2S,4R)-4-hydroxy-1-((R)-2-(3-(2-(4-(3-(2-hydroxyphenyl)thieno[3,2-c]pyridazin-6-yl)piperidin-1-yl)ethoxy)isoxazol-5-yl)-3-methylbutanoyl)-N-((S)-1-(4-(4-methylthiazol-5-yl)phenyl)ethyl)pyrrolidine-2-carboxamide]	A (“A” indicates maximum degradation ≥ 75%)
≥ 10 nM	< 50%	≥ 10 nM	Cc1ncsc1-c1ccc(CNC(=O)[C@@H]2C[C@@H](O)CN2C(=O)[C@@H](NC(=O)C2(F)CC2)C(C)(C)C)c(OCCCN2CCC(c3sc4nnc(-c5ccccc5O)cc4c3C)CC2)c1 [Compound 81, (2S,4R)-1-((S)-2-(1-fluorocyclopropane-1-carboxamido)-3,3-dimethylbutanoyl)-4-hydroxy-N-(2-(3-(4-(3-(2-hydroxyphenyl)-5-methylthieno[2,3-c]pyridazin-6-yl)piperidin-1-yl)propoxy)-4-(4-methylthiazol-5-yl)benzyl)pyrrolidine-2-carboxamide]	B (“B” indicates maximum degradation ≥ 50%)
≥ 1000 nM	< 50%	≥ 1000 nM	Cc1ncsc1-c1ccc(CNC(=O)[C@@H]2C[C@@H](O)CN2C(=O)[C@@H](NC(=O)CCN2CCC(c3cc4cc(-c5ccccc5O)nnc4s3)CC2)C(C)(C)C)cc1 [Compound 24]	C (“C” indicates maximum degradation < 50%)
≥ 1000 nM	< 50%	≥ 1000 nM	Cc1ncsc1-c1ccc([C@H](C)NC(=O)[C@@H]2C[C@@H](O)CN2C(=O)[C@@H](c2cc(OCCN3CC(Cc4c(C)sc5nnc(-c6ccccc6O)cc45)C3)no2)C(C)C)cc1 [Compound 110, (2S,4R)-4-hydroxy-1-((R)-2-(3-(2-(3-((3-(2-hydroxyphenyl)-6-methylthieno[2,3-c]pyridazin-5-yl)methyl)azetidin-1-yl)ethoxy)isoxazol-5-yl)-3-methylbutanoyl)-N-((S)-1-(4-(4-methylthiazol-5-yl)phenyl)ethyl)pyrrolidine-2-carboxamide]	B (“B” indicates maximum degradation ≥ 50%)
< 10 nM	< 50%	≥ 1000 nM	Cc1ncsc1-c1ccc([C@H](C)NC(=O)[C@@H]2C[C@@H](O)CN2C(=O)[C@@H](c2cc(N3CCC(N4CCC(c5sc6nnc(-c7ccccc7O)cc6c5C)CC4)CC3)no2)C(C)C)cc1 [Compound 96, (2S,4R)-4-hydroxy-1-((R)-2-(3-(4-(3-(2-hydroxyphenyl)-5-methylthieno[2,3-c]pyridazin-6-yl)-[1,4'-bipiperidin]-1'-yl)isoxazol-5-yl)-3-methylbutanoyl)-N-((S)-1-(4-(4-methylthiazol-5-yl)phenyl)ethyl)pyrrolidine-2-carboxamide]	A (“A” indicates maximum degradation ≥ 75%)
< 10 nM	≥ 50%	≥ 1000 nM	Cc1ncsc1-c1ccc([C@H](C)NC(=O)[C@@H]2C[C@@H](O)CN2C(=O)[C@@H](c2cc(N3CCC(C(=O)N4CCC(c5sc6nnc(-c7ccccc7O)cc6c5C)CC4)CC3)no2)C(C)C)cc1 [Compound 98, (2S,4R)-4-hydroxy-1-((R)-2-(3-(4-(4-(3-(2-hydroxyphenyl)-5-methylthieno[2,3-c]pyridazin-6-yl)piperidine-1-carbonyl)piperidin-1-yl)isoxazol-5-yl)-3-methylbutanoyl)-N-((S)-1-(4-(4-methylthiazol-5-yl)phenyl)ethyl)pyrrolidine-2-carboxamide]	A (“A” indicates maximum degradation ≥ 75%)
≥ 100 nM	< 50%	≥ 1000 nM	Cc1ncsc1-c1ccc([C@H](C)NC(=O)[C@@H]2C[C@@H](O)CN2C(=O)[C@@H](c2cc(OCCNC(=O)[C@H]3CCc4sc5nnc(-c6ccccc6O)cc5c4C3)no2)C(C)C)cc1 [Compound 45, (S)-N-(2-((5-((R)-1-((2S,4R)-4-hydroxy-2-(((S)-1-(4-(4-methylthiazol-5-yl)phenyl)ethyl)carbamoyl)pyrrolidin-1-yl)-3-methyl-1-oxobutan-2-yl)isoxazol-3-yl)oxy)ethyl)-3-(2-hydroxyphenyl)-5,6,7,8-tetrahydrobenzo[4,5]thieno[2,3-c]pyridazine-6-carboxamide]	B (“B” indicates maximum degradation ≥ 50%)
≥ 100 nM	< 50%	≥ 1000 nM	Cc1ncsc1-c1ccc(CNC(=O)[C@@H]2C[C@@H](O)CN2C(=O)[C@@H](NC(=O)CCCC(=O)N2CCC(c3cc4nnc(-c5ccccc5O)cc4s3)CC2)C(C)(C)C)cc1 [Compound 80, (2S,4R)-4-hydroxy-1-((S)-2-(5-(4-(3-(2-hydroxyphenyl)thieno[3,2-c]pyridazin-6-yl)piperidin-1-yl)-5-oxopentanamido)-3,3-dimethylbutanoyl)-N-(4-(4-methylthiazol-5-yl)benzyl)pyrrolidine-2-carboxamide]	B (“B” indicates maximum degradation ≥ 50%)
≥ 100 nM	< 50%	≥ 1000 nM	Cc1ncsc1-c1ccc([C@H](C)NC(=O)[C@@H]2C[C@@H](O)CN2C(=O)[C@@H](c2cc(N3C[C@@H]4C[C@H]3CN4C(=O)[C@@H]3CCc4sc5nnc(-c6ccccc6O)cc5c4C3)no2)C(C)C)cc1 [Compound 44, (2S,4R)-4-hydroxy-1-((R)-2-(3-((1S,4S)-5-((R)-3-(2-hydroxyphenyl)-5,6,7,8-tetrahydrobenzo[4,5]thieno[2,3-c]pyridazine-6-carbonyl)-2,5-diazabicyclo[2.2.1]heptan-2-yl)isoxazol-5-yl)-3-methylbutanoyl)-N-((S)-1-(4-(4-methylthiazol-5-yl)phenyl)ethyl)pyrrolidine-2-carboxamide]	B (“B” indicates maximum degradation ≥ 50%)

SMILES	DC50 (HiBit-BRM fusion protein)	Dmax [1]	DC50 [1]	BRM HiBit Degradation Maximum (%) (HiBit-BRM fusion protein)
Cc1ncsc1-c1ccc([C@H](C)NC(=O)[C@@H]2C[C@@H](O)CN2C(=O)[C@@H](c2cc(O[C@@H]3CC[C@@H]3N3CCC(c4sc5nnc(-c6ccccc6O)cc5c4C)CC3)no2)C(C)C)cc1 [Compound 35, (2S,4R)-4-hydroxy-1-[(2R)-2-{3-[(1R,2S)-2-{4-[3-(2-hydroxyphenyl)-5-methylthieno[2,3-c]pyridazin-6-yl]piperidin-1-yl}cyclobutoxy]-1,2-oxazol-5-yl}-3-methylbutanoyl]-N-[(1S)-1-[4-(4-methyl-1,3-thiazol-5-yl)phenyl]ethyl]pyrrolidine-2-carboxamide]	≥ 10 nM	< 50%	≥ 1000 nM	A (“A” indicates maximum degradation ≥ 75%)
Cc1ncsc1-c1ccc([C@H](C)NC(=O)[C@@H]2C[C@@H](O)CN2C(=O)[C@@H](c2cc(O[C@H]3C[C@@H](N4CCC(c5sc6nnc(-c7ccccc7O)cc6c5C)CC4)C3)no2)C(C)C)cc1 [Compound 61, (2S,4R)-4-hydroxy-1-((R)-2-(3-((1s,3S)-3-(4-(3-(2-hydroxyphenyl)-5-methylthieno[2,3-c]pyridazin-6-yl)piperidin-1-yl)cyclobutoxy)isoxazol-5-yl)-3-methylbutanoyl)-N-((S)-1-(4-(4-methylthiazol-5-yl)phenyl)ethyl)pyrrolidine-2-carboxamide]	≥ 1000 nM	< 50%	≥ 1000 nM	C (“C” indicates maximum degradation < 50%)
